Data: PMC6151865, “Targeting protein biotinylation enhances tuberculosis chemotherapy” (Science Translational Medicine, 2018)
Like-named read-outs stand apart in the source and are kept apart here.

Experiments:
Rv3406 [1] = molecular target: T1, Rv3406 (Mycobacterium tuberculosis, UniProt P9WKZ1); conditions: substrate; ref Neres et al., ACS Chem Biol 10, 705-714 (2015); cited from earlier work
Mtb [2] = assay: Acid-fast (Kinyoun) staining after Bio-AMS exposure; type: cell-based, Mycobacterium tuberculosis; conditions: lethal dose (5 µM); after 10 days of exposure
Rv3406 [3] = molecular target: T1, Rv3406
Mtb [4] = assay: MIC measurements (carbon sources, biotin in medium)
Mtb in mouse macrophages = assay: Intracellular Mtb in mouse bone marrow-derived macrophages; conditions: treated 24 hours after infection
in vivo [5] = conditions: CD-1, mouse
Mtb [6] = type: cell-based, Mycobacterium tuberculosis
Mtb H37Rv strain = assay: Combination of Bio-AMS with rifampicin, ethambutol, isoniazid in liquid culture; type: cell-based, Mycobacterium tuberculosis; conditions: for bactericidal activity when used individually: Bio-AMS at 1 µM, rifampicin at 6.5 nM, ethambutol at 12.5 µM; for change of MIC by sublethal dose of Bio-AMS: Bio-AMS 1 µM, 3 days pre-exposure; for Mtb inoculum killed: after 20 days of treatment
[7] = system: non-replicating Mtb H37Rv strain; assay: Viability of non-replicating Mtb (PBS starvation); type: cell-based, Mycobacterium tuberculosis; conditions: starvation in PBS
[8] = in vivo
[9] = Tolerability at ascending intraperitoneal doses; type: in vivo, CD-1 mice
Procedure: Groups of three mice received Bio-AMS (50, 100, 250, or 500 mg/kg) via intraperitoneal injection at 4 ml/kg. They were observed continuously for the first half-hour after injection and then at 24 hours after injection.
Table S5. Tolerability of Bio-AMS at ascending intraperitoneal doses in CD-1 mice.a Bio-AMS 50mg/kg (IP) 4 ml/kg
Mouse # Weight ½ h Observation 24h Observation
Bio-AMS 100mg/kg (IP) 4 ml/kg
Bio-AMS 250mg/kg (IP) 4 ml/kg
Bio-AMS 500mg/kg (IP) 4 ml/kg […]
would be tolerated in mice (with plasma concentrations above the MIC for a minimum of 40-50% of the dosing interval). For this, we conducted a dose escalation tolerab ility study in which groups of three mice received ascending IP doses of Bio-AMS. Only the lowest dose of 50 mg/kg was tolerated up to 24 h post injection. Animal weights remained unchanged during the 24 h period post-injection at all doses. Assuming linear pharmacokinetics, a 50 mg/kg dose would deliver plasma concentrations above the MIC for a very small fraction of the dosing

[10] = 7 days
in vivo [11] = conditions: female, NZW, rabbit, lung lesions and plasma, oral
[12] = Rifampicin-doxycycline interaction study; conditions: plasma; for AUC(0-t): female, CD-1, mouse, in vivo, po, Doxycycline AUC[0-8] Mean (SD); for Doxycycline Cmin Mean (SD): daytime
Mtb ∆bioA = type: cell-based, Mycobacterium tuberculosis
in vivo [13] = conditions: female, CD-1, mouse, po, 10 mg/kg
bioA TetON-1 Mtb strain = system: bioA TetON-1 Mtb strain; set-up: species or system C57BL/6 mice; conditions: in vivo
[14] = system: [H][C@]12CS[C@@H](CCCCC(=O)NS(=O)(=O)NC[C@H]3O[C@@H](n4cnc5c(N)ncnc54)[C@H](O)[C@@H]3O)[C@@]1([H])NC(=O)N2; assay: purified protein, by the assay type; conditions: pH 7.5; 25.0 °C
[15] = different carbon sources at 0.1%
[16] = rifampicin single dose plus doxycycline in diet (2000 ppm, 7 days)
[17] = rifampicin steady state + doxycycline in diet

CCCCC(CC)COS(=O)(=O)[O-].[Na+] (centres unmarked) [2-EHS, 2-ethylhexyl sulfate]
Km (Rv3406 [1]): 8.8 ± 0.5 µM
kcat (Rv3406 [1]): 0.32 ± 0.015 s⁻¹

Nc1ncnc2c1ncn2[C@@H]1O[C@H](CNS(=O)(=O)NC(=O)CCCC[C@@H]2SC[C@@H]3NC(=O)N[C@@H]32)[C@@H](O)[C@H]1O [Bio-AMS, 5′-[N-(d-biotinoyl)sulfamoyl]amino-5′-deoxyadenosine]
acid-fastness (Mtb [2]): most bacteria no longer stained as acid-fast
KM value relative to 2-EHS (higher) (Rv3406 [3]): 48 fold
kcat value relative to 2-EHS (lower) (Rv3406 [3]): ~1300 fold
impact of primary carbon source on MIC (Mtb [4]; [15]): little impact
impact of primary carbon source on minimal bactericidal concentration (Mtb [4]; [15]): little impact
increase of MIC by addition of biotin to the growth medium (Mtb [4]; with versus without biotin): fourfold
growth of Mtb in infected mouse macrophages (Mtb in mouse macrophages): inhibited growth of Mtb in a concentration-dependent manner
bioavailability (in vivo [5]; 25 mg/kg): 2%
AUC(0-t) (in vivo [5]; ip, 25 mg/kg): 31.8 µM·h
Cmax (in vivo [5]; ip, 25 mg/kg): 61.1 µM
AUC(0-t) (in vivo [5]; iv, 5 mg/kg): 2.5 µM·h
Cmax (in vivo [5]; iv, 5 mg/kg): 8.72 µM
AUC(0-t) (in vivo [5]; po, 25 mg/kg): 0.26 µM·h
Cmax (in vivo [5]; po, 25 mg/kg): 0.11 µM
mitochondrial toxicity (HepG2 cells): no signs of mitochondrial toxicity
shift in IC50, glucose medium compared to galactose medium (HepG2 cells; human): 1.05 fold
growth of Mtb H37Ra (CFU) (Mtb H37Ra): prevented growth
bactericidal concentration (Mtb [6]): 5 µM
killing kinetics (Mtb [6]): kinetics similar to that of isoniazid
viability of the culture (Mtb [6]): < 25 CFU/ml
toxicity for mouse macrophages (mouse macrophages): did not detect toxicity
bactericidal activity when used individually (Mtb H37Rv strain): none of the compounds were bactericidal
Mtb viability, non-replicating [7]: no reduction in Mtb viability
F, bioavailability relative to IV exposure ([8]; CD-1, mouse, 25 mg/kg): 241%
elimination in mice ([8]; mouse): rapidly eliminated
exposure ([8]; mouse, ip): good exposure
exposure ([8]; mouse, po): low
24h Observation ([9]; 50 mg/kg IP, mouse 1): Normal activity
½ h Observation ([9]; 50 mg/kg IP, mouse 1): Active, grooming
24h Observation ([9]; 50 mg/kg IP, mouse 2): Scruffy; some lethargic
½ h Observation ([9]; 50 mg/kg IP, mouse 2): Active, grooming
24h Observation ([9]; 50 mg/kg IP, mouse 3): Normal activity
½ h Observation ([9]; 50 mg/kg IP, mouse 3): Active, grooming
24h Observation ([9]; 100 mg/kg IP, mouse 4): Normal activity; grooming
½ h Observation ([9]; 100 mg/kg IP, mouse 4): Normal activity
24h Observation ([9]; 100 mg/kg IP, mouse 5): Dead
½ h Observation ([9]; 100 mg/kg IP, mouse 5): Normal activity
24h Observation ([9]; 100 mg/kg IP, mouse 6): Euthanized
½ h Observation ([9]; 100 mg/kg IP, mouse 6): Normal activity
24h Observation ([9]; 250 mg/kg IP, mouse 7): Dead
½ h Observation ([9]; 250 mg/kg IP, mouse 7): Heavy breathing
24h Observation ([9]; 250 mg/kg IP, mouse 8): Dead
½ h Observation ([9]; 250 mg/kg IP, mouse 8): Scruffy, heavy breathing
24h Observation ([9]; 250 mg/kg IP, mouse 9): Euthanized
½ h Observation ([9]; 250 mg/kg IP, mouse 9): Normal activity
24h Observation ([9]; 500 mg/kg IP, mouse 10): Near death; scruffy; pale color
½ h Observation ([9]; 500 mg/kg IP, mouse 10): Scruffy, heavy breathing
24h Observation ([9]; 500 mg/kg IP, mouse 11): Euthanized
½ h Observation ([9]; 500 mg/kg IP, mouse 11): Scruffy, heavy breathing
24h Observation ([9]; 500 mg/kg IP, mouse 12): Euthanized
½ h Observation ([9]; 500 mg/kg IP, mouse 12): Scruffy, heavy breathing
animal weights during the 24 h period post-injection ([9]; IP, all doses): unchanged
dose tolerated up to 24 h post injection ([9]; IP, doses of 50, 100, 250, 500 mg/kg tested): 50 mg/kg
tolerability of the dose required for concentrations above the MIC for a substantial fraction of the dosing interval ([9]; mice): not tolerated

C[C@H]1c2cccc(O)c2C(=O)C2=C(O)[C@]3(O)C(=O)C(C(N)=O)=C(O)[C@@H](N(C)C)[C@@H]3[C@@H](O)[C@@H]21 [doxycycline]
Average lesion/plasma ratio (SD) ([10]; animal 1069, 200 ppm in chow, 44 lesions): 3.9 (2.6)
Average lesion/plasma ratio (SD) ([10]; animal 1071, 400 ppm in chow, 19 lesions): 5.4 (2.5)
Kp at 7 days (in vivo [11]; 200 ppm): 6.1
Kp at 7 days (in vivo [11]; 400 ppm): 3.7
decrease in exposure ([12]; caused by seven daily doses of rifampicin, 8-hour period, P < 0.05): ~ 30%
AUC(0-t) [12, 16]: 4780 ng·h/mL
AUC(0-t) [12, 17]: 3360 ng·h/mL
Doxycycline Cmin Mean (SD) [12, 16]: 0.36 (0.09) g/mL
Doxycycline Cmin Mean (SD) [12, 17]: 0.26 (0.02) g/mL

CC[C@@H](CO)NCCN[C@@H](CC)CO [ethambutol]
change of MIC with decreasing concentrations of biotin (Mtb ∆bioA): unchanged
change of MIC by sublethal dose of Bio-AMS (Mtb H37Rv strain): reduced the MIC
bactericidal activity when used individually (Mtb H37Rv strain): none of the compounds were bactericidal
Mtb inoculum killed (Mtb H37Rv strain; ethambutol 12.5 µM combined with Bio-AMS 1 µM): > 99.9%

NNC(=O)c1ccncc1 [isoniazid]
change of MIC by sublethal dose of Bio-AMS (Mtb H37Rv strain): unchanged

CO[C@H]1/C=C/O[C@@]2(C)Oc3c(C)c(O)c4c(O)c(c(/C=N/N5CCN(C)CC5)c(O)c4c3C2=O)NC(=O)/C(C)=C\C=C\[C@H](C)[C@H](O)[C@@H](C)[C@@H](O)[C@@H](C)[C@H](OC(C)=O)[C@@H]1C [rifampicin]
amount accumulated in Mtb ∆bioA compared to wild-type (Mtb ∆bioA): increased amounts of rifampicin
change of MIC with decreasing concentrations of biotin (Mtb ∆bioA): decreased the MIC
AUC(0-t) (in vivo [13]; Rifampicin AUC[0-8] Mean (SD)): 30700 ng·h/mL
Cmax (in vivo [13]; Rifampicin Cmax Mean (SD)): 5210 ng/mL
effect of co-administration of doxycycline on exposure [12]: not affected
Rifampicin Cmax Mean (SD) [12, 17]: 5.49 (2.14) g/mL
killing of Mtb bioA TetON-1 in mouse lungs (bioA TetON-1 Mtb strain): more than 200 fold
CFU from lungs, BioA expression reduced (no doxycycline) compared to constitutive (bioA TetON-1 Mtb strain; mouse): fewer CFU
change of MIC by sublethal dose of Bio-AMS (Mtb H37Rv strain): reduced the MIC
bactericidal activity when used individually (Mtb H37Rv strain): none of the compounds were bactericidal
Mtb inoculum killed (Mtb H37Rv strain; rifampicin 6.5 nM combined with Bio-AMS 1 µM): more than 99.7%

O=C(O)CCC(=O)C(=O)O [α-KG, alpha-ketoglutarate]
Km (Rv3406 [1]): 9.4 ± 1.2 µM
kcat (Rv3406 [1]): 0.363 ± 0.0167 s⁻¹

Rv3406 (Mycobacterium tuberculosis H37Rv)
Km [14]: 424 ± 136 µM
kcat [14]: 0.00025 ± 1.7e-05 s⁻¹
kcat/Km [14]: 0.583 ± 0.12 M⁻¹ s⁻¹
